In PubChem BioAssay AID624041 (The Scripps Research Institute Molecular Screening Center, 2012) one finds inhibition data, which are given here for one compound.

Active and inactive are the calls of the source. How the calls were made is not given here.

The target in test [1] is Monoacylglycerol lipase ABHD6 (Mus musculus) (UniProt Q8R2Y0). Nature of the test: mouse liver ABHD6 target engagement – competitive gel-based ABPP, fluorescence, in vivo study for DAGLb inhibitor project, late-stage follow-up (AID 624041). The following applies: in vivo dosing.
Sequence of Monoacylglycerol lipase ABHD6 (Mus musculus) (Q8R2Y0 whole entry, looked up): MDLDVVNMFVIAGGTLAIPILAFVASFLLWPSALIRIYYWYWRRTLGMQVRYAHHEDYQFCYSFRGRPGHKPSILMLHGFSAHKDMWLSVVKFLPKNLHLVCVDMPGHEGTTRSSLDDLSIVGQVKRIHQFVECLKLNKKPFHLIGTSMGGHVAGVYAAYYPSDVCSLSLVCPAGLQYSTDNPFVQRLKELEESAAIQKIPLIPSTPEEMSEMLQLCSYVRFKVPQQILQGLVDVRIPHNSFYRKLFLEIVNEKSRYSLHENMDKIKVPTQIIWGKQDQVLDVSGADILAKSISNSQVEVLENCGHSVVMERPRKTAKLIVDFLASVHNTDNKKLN
Experiment in test [2]: as above
The settings on record: in vivo dosing, anti-target, probe FP-Rh, stronger effect = higher value.

The inhibition is the percentage by which the read-out fell short of the control. `COc1ccc(-c2ccc(-c3cn(C(=O)N4CCCCC4c4ccccc4)nn3)cc2)cc1` (stereo not drawn): the inhibition in test [1] (probe FP-Rh, stronger effect = higher value, dose or concentration not given here) is 95%; in test [1] (probe FP-Rh, inhibition at 5 mg/kg, stronger effect = higher value) it was 98%; in test [1] (probe HT-01, stronger effect = higher value, dose or concentration not given here), 90%; in test [1] (probe HT-01, inhibition at 5 mg/kg, stronger effect = higher value) it was 90%; in test [2] (65 kDa SH, dose or concentration not given here), 70% (inactive); in test [2] (65 kDa SH, inhibition at 5 mg/kg), 5%. Besides, the inhibition was 80% (inactive) in test [2] (72 kDa SH, dose or concentration not given here) and 20% in test [2] (72 kDa SH, inhibition at 5 mg/kg).
